Here are results for six compounds from PMC13288645, “A cryopreserved and in vivo-in vitro validated human induced pluripotent stem cell blood-brain barrier model for reliable neurotoxicity assessment” (NAM journal, 2025).

Usually Papp stands for the rate of passage across a membrane or cell layer, normalised by area and donor concentration. What is called LogP is the decadic logarithm of the partition coefficient of the neutral form, usually between octanol and water.

“And” between values parts separate entries of the source, which are not always exact repeats. Equal values may be shown once. A value given as a limit tells only on which side of the number the result lay.

Data set [1] deals with BBB. The following applies: cited from earlier work; for In vivo human rate constant for compound transfer from blood across the BBB into brain (K1): human clinical PET, ref Ghazanfari et al. 2024, Le Roux et al. 2019.
The next data set in a line: in vitro. The following applies: human. The text has this: All human iPSC-derived blood-brain barrier cells (Brain Microvascular Endothelial Cells (BMECs), Astrocytes and Pericytes (AP)), media (BMEC maintenance medium and AP medium), and media supplements (plating supplement 500X) have been purchased from Fujifilm Cellular Dynamics Inc. (FCDI, Madison, WI, US, catalogue: R1241). The respective certificates of analysis, including cell characterization data, can be accessed in Supplementary Data File 1. All cells were derived from the same proprietary donor. […] All additional experiments included 96-transwell® membranes only. […] BMEC maintenance medium contained only 1 % P/S without supplements. Unless stated differently, transwell® compartment volumes were used as recommended by Corning including 75 µL apically and 235 µL basolaterally for 96-transwells® as well as 300 µL apically and 1000 µL basolaterally for 24-transwells®.
On day −2, 24-transwells® were coated apically with Collagen IV-Fibronectin coating solution and stored overnight at 4 °C (Fig. 1A). In contrast, 96-transwells® were first flipped upside down, and coated with 50 µL Fibronectin-Collagen IV solution on the basolateral side for 4 h at 37 °C and 5 % CO2 and stored overnight at 4 °C (Fig. 1B). On day −1, 24-transwells® were flipped upside down and coated with 100 µL of a 0.1 % Gelatin solution for 0.5 h at room temperature (RT) before replacement with 100 µL of the AP seeding solution containing 1.1 × 10^6 astrocytes/mL and 2.2 × 10^6 pericytes/mL in AP plating medium. After seeding, cells were incubated to attach for 4 h at 37 °C and 5 % CO2 and then flipped back to normal orientation. […] In both cases, Collagen IV-Fibronectin coating solution was replaced with AP plating medium. […] Here, cells were incubated to attach for 4 h at 37 °C and 5 % CO2 before flipping the transwells® slowly back to normal orientation. To inspect the cell layers for obvious leakages or cell detachment, blank transwell® filters and fully assembled models were observed under a Zeiss Primovert microscope (Carl Zeiss Microscopy GmbH, Jena, Germany) (Supplementary Figure 1). On day 1, BMEC plating medium was replaced by BMEC maintenance medium. After 24 h at 37 °C and 5 % CO2 barrier integrity was evaluated to consider only highly restrictive BBB models for pharmaceutical permeability testing.
After 60 min at 37 °C, 5 % CO2 and 100 rpm shaking on an orbital shaker, 50 µL were sampled from the donor and acceptor (containing APs) compartment. Following a transfer to 96-well plates, samples were diluted 1:1 with 50 µL of DPBS.
With cac being the analyte concentration in the acceptor compartment (µM), t the duration of the incubation (s, here 3 600 s), A the surface area of the respective transwell® membrane (cm^2), Vac the volume of the acceptor compartment (mL) and cdc the applied concentration in the donor compartment (µM). Papp was reported as the average of triplicate 24-transwell® models and six 96-transwell® model replicates.
Additional compound data, including final solvent concentrations and physicochemical properties, were summarized in Supplementary Table 1. After 60 min at 37 °C, 5 % CO2 and 100 rpm shaking on an orbital shaker, 50 µL were sampled from the acceptor and donor compartments of quadruplicate BBB models as well as cell-free controls.
Then, all samples were subject to protein precipitation with acetonitrile:methanol 50:50 (v/v). After centrifugation for 10 min at 10 000 × g, supernatants were transferred to new vials and subsequently evaporated to dryness. […] Derivatization was executed in a ThermoMixer C (Eppendorf, Hamburg, Germany) at 65 °C and 600 rpm for 15 min. After evaporating samples to dryness again, final reconstitution was performed as described above.

Data set [2] concerns BBB. The experiment in a line: Prediction of human in vivo K1 from in vitro Papp with the linear model.
The subject of data set [3] is hiPSC-derived blood-brain barrier model. The following applies: human.
Another data set relates to rats. The following applies: oral dosing, ref Amaraneni et al., 2016, Kim et al., 2008, 2007; cited from earlier work.
In data set [4] the test system is hiPSC-derived blood-brain barrier model. The experiment in a line: Bioavailable radioactivity of [benzyl-14C]-Deltamethrin in the transwell media by liquid scintillation counting. The following applies: 1h, per replicate, listed as [benzyl-14C]-Deltamethrin.
The next data set has as its system hiPSC-derived BBB. Further details: method as in Le Roux et al., 2019. The following applies: high in vitro permeability not confirmed by this study; ref Le Roux et al., 2019; cited from earlier work.
The conditions of data set [5]: source not stated; cited from earlier work.
Where [6] appears, read: In vitro hiPSC-derived blood-brain barrier model apparent permeability (Papp).
Setting [7] is: male, in vitro apparent permeability Papp.
Setting [8] is: male, in vitro apparent permeability Papp, 96-transwell hiPSC-derived BBB, 60 min, 5 µM (17β-Estradiol 10 µM, Deltamethrin 3 µM).

On to `C[C@]12CC[C@@H]3c4ccc(O)cc4CC[C@H]3[C@@H]1CC[C@@H]2O` [17β-Estradiol], for which the “In vivo human rate constant for compound transfer from blood across the BBB into brain (K1)” value (“In vivo human rate constant” below) in the data set with BBB [1] is reported as 0.24 mL min^-1 cm^-3. For the same compound, in the data set on BBB [1] (human, ref Delforge et al., 1995, Le Roux et al., 2019, Zubieta et al., 2000), the “human in vivo permeability K1 (elevated)” value was greater than 0.1 mL cm^-3 min^-1. For the same compound, the Papp at 60 min in “in vitro” (setting [6]) was 16.9 ×10⁻⁶ cm/s; in the data set “in vitro” (setting [7]), greater than 15 ×10⁻⁶ cm/s.

For `CC1(C)[C@H](C(=O)O[C@H](C#N)c2cccc(Oc3ccccc3)c2)[C@@H]1C=C(Br)Br` [Deltamethrin], the “predicted in vivo K1” value in the data set on BBB [2] (after insertion of Papp into the linear model) is −0.099 mL cm^-3 min^-1. Moreover, the “Prediction of K1” value with BBB [2] (human in vivo K1 predicted from in vitro Papp with the linear model) is -0.099 mL min^-1 cm^-3. Moreover, in data set [3], the “Bioavailable [benzyl-14C]-Deltamethrin” value turned out to be 786.44 Bq. Further, in the data set with rats, the “brain entry and neurotoxic effects in rats” value is “entered the brain and exhibited neurotoxic effects only after 10 mg/kg oral dosing”. In addition, in “in vitro” (setting [7]), the Papp at 60 min is 0.979 ×10⁻⁶ cm/s. In addition, the “Radioactivity Sample apical” value in data set [4] (BBB model, acceptor compartment) was 1.40 Bq and 1.53 Bq and 1.70 Bq and 2.08 Bq. Also, in data set [4] (BBB model, donor compartment), the “Radioactivity Sample basolateral” value was 737.12 Bq and 789.28 Bq and 793.66 Bq and 818.98 Bq. Besides, in data set [4] (cell-free control transwell with compound, acceptor compartment), the “Radioactivity Blank apical” value was 3.00 Bq and 3.65 Bq and 3.95 Bq and 2.93 Bq. Also, the “Radioactivity Blank basolateral” value in data set [4] (cell-free control transwell with compound, donor compartment) was 762.65 Bq and 864.27 Bq and 830.94 Bq and 846.43 Bq.

`C#Cc1cccc(Nc2ncnc3cc(OCCOC)c(OCCOC)cc23)c1` [Erlotinib]: the “In vivo human rate constant” value with BBB [1] was 0.02 mL min^-1 cm^-3. For the same compound, the values for the Papp at 60 min in the data set “in vitro” (male) and in the data set “in vitro” (setting [8]) were 12.1 ×10⁻⁶ cm/s and less than 15 ×10⁻⁶ cm/s, respectively. Besides, the “in vitro permeability Papp in previous hiPSC-derived BBB results” value with hiPSC-derived BBB is reported as > 15 × 10^–6 cm/s.

In the case of `CCOC(=O)c1ncn2c1CN(C)C(=O)c1cc(F)ccc1-2` [Flumazenil], in data set [5], the LogP was 1.9.

As to `CN(C)C(=O)C(CCN1CCC(O)(c2ccc(Cl)cc2)CC1)(c1ccccc1)c1ccccc1` [Loperamide], the “In vivo human rate constant” value in the data set with BBB [1] was 0.002 mL min^-1 cm^-3. Further, the “human in vivo K1 (clinically shown to enter the human brain relatively poorly)” value with BBB [1] (human, ref Bauer et al., 2015, Traxl et al.) was less than 0.05 mL cm^-3 min^-1. Besides, the results for the Papp at 60 min in “in vitro” (male) and in “in vitro” (setting [8]) were 6.75 ×10⁻⁶ cm/s and less than 15 ×10⁻⁶ cm/s, respectively. For the same compound, in data set [5], the LogP is listed as 5.13.

Consider `CCN1CCC[C@H]1CNC(=O)c1c(O)c(Cl)cc(Cl)c1OC` [Raclopride], for which the “In vivo human rate constant” value with BBB [1] is 0.09 mL min^-1 cm^-3. Also, the Papp at 60 min in the data set “in vitro” (setting [6]) was 16.8 ×10⁻⁶ cm/s; in “in vitro” (setting [7]), greater than 15 ×10⁻⁶ cm/s.
